Consider 24 compounds from patent publication US4004008A, “O-Tertiary amino-alkyl-N-benzoyl tyrosil amides” (priority 1974, dated 1977).

Data set [1] in a line: Acute toxicity (DL50) i.v. in rat. Format: in vivo. To be noted: in vivo, iv, dose causing death in 50% of the animals. On the procedure:
In this table (n. 1) there are recorded the compounds described in the examples with their relative serial numbers, the acute toxicity, the antispastic activity observed in two experimental tests, one "in vivo" and one "in vitro". There are moreover recorded two therapeutic indices which take account of the toxicity of these compounds in relation to their in vivo and in vitro activity. More precisely:
A. DL50 which, as is known, is the quantity of the substance expressed in mg/kg of animal weight, capable of causing death in 50% of the animals treated.

Data set [2] concerns intestinal transit of the charcoal. Briefly: Vegetable carbon (charcoal) intestinal transit test in vivo. Set-up: species or system rat. To be noted: i.v., rat, charcoal test, 2 hours; for ED50: Rattus norvegicus, iv, 2 h, read-out: Antisp. activity in transit test: ED50. Here is the method:
B. The vegetable carbon method in vivo (charcoal method) which consists of administering by oral means to rats, which have fasted for 24 hours, 0.3ml/per rate of a mixture consisting of: 10g of charcoal and 5 g of gum arabic suspended in a volume of 100 cc of H2 O as well as at the same time the substance being studied, accordingly as desired, generally i.v., s.c., oral. After two hours the animals are killed and those are taken to be negative in which the charcoal has reached the first portion of the colon and the others positive, in the sense that the substance administered has slowed down the intestinal transit of the charcoal.
In effect the animals treated with a physiological solution (checks) are all negative after two hours.
D. I.T.1 is the therapeutic index under the profile of the antispastic activity in vivo, and it is obtained by recording the DL50 (column 2) with the ED50 of the charcoal test (column 3).

The test system of data set [3] is ileum of a cavy (BaCl2 spasm). Briefly: Antispastic activity in vitro, Magnus method, cavy ileum stimulated with BaCl2. Format: cell-based. The following applies: ratio to papaverine = 1; Table 1; 37°. Here is the method:
C. The method in vitro is that of Magnus, with the ileum of the cavy, and is in common use for all evaluations. It consists of extracting the ileum from the cavy and placing it in a receptacle which contains nutritive liquid, suitably oxygenated, and registering the movements of the organ which remains alive for several hours if maintained at a temperature of 37°. According to the traditional method followed by us, BaCl2 is put into the bath as a spasmisant: the reaction is a violent contraction of the organ. This contraction can be prevented by adding beforehand pharmaceuticals which inhibit spasms, and in this case our compounds.
The values recorded are expressed as relation between papaverine and the ED50 of our compounds. (As is known, the ED50 is the dose which results in a 50% reduction in spastic contraction).
E. I.T.2 is the therapeutic index under the profile of the antispastic activity in vitro and is given by the product between the in vitro antispastic activity index (column 4) and the corresponding DL50 (column 2).

For the compound `CCCN(CCC)C(=O)C(Cc1ccc(OCCN(C)C)cc1)NC(=O)c1ccccc1` (racemic) [CR 592, O-(2dimethylamino-ethyl)-N-benzol-DL-Tyrosil-di-n-propilamide], the LD50 (commonly the dose expected to kill half of the subjects tested) in data set [1] came out at 58.1 mg/kg. The ED50 (as a rule, the dose that gives a 50% effect, or the effect in half of the subjects) in data set [2] was 47.5 mg/kg. For the same compound, the “Antisp. activity in vitro on the ileum of a cavy by Stim. BaCl2: ED50 pap./ED50 CR” value (shortened to “Antisp. activity in vitro on the ileum”) in data set [3] turned out to be 0.25.
For `CCNC(=O)C(Cc1ccc(OCCN(C)C)cc1)NC(=O)c1ccccc1` (racemic) [CR 608, O-(2-dimethylamino-ethyl)-N-benzoyl-DL-tyrosil-ethylamide], the LD50 in data set [1] amounted to 162 mg/kg. In data set [2], the ED50 is 104 mg/kg.
Consider `CCCN(CCC)C(=O)C(Cc1ccc(OCCCN2CCN(CCO)CC2)cc1)NC(=O)c1ccccc1` (racemic) [CR 609, O-[3-(N"-hydroxyethyl-piperazine)-N'-propyl]-N-benzoyl-DL-tyrosil-di-n-propylamide], for which the LD50 in data set [1] was 139 mg/kg. Also, in data set [2], the ED50 worked out at 50.5 mg/kg. Moreover, in data set [3], the “Antisp. activity in vitro on the ileum” value stood at 0.68.
As to `CN(C)CCOc1ccc(CC(NC(=O)c2ccccc2)C(=O)N2CCOCC2)cc1` (racemic) [CR 611, O-(2-dimetylamino-ethyl)-N-benzoyl-DL-tyrosil-morpholilamide], the LD50 in data set [1] is 108 mg/kg. For the same compound, the 50% effective dose (ED50) in data set [2] stood at 59.8 mg/kg.
The like results for `CCN(CC)CCOc1ccc(CC(NC(=O)c2ccccc2)C(=O)N2CCCC2)cc1` (racemic) [CR 614, O-(2-diethylamino-ethyl)-N-benzoyl-DL-tyrosil-pyrrolidilamide] were, in that order, 58.7 mg/kg and 53.2 mg/kg.
For `CN(C)CCOc1ccc(CC(NC(=O)c2ccccc2)C(=O)NCc2ccccc2)cc1` (racemic) [CR 616, O-(2-dimethylamino-ethyl)-N-benzoyl-DL-tyrosil-benzylamide], in data set [1], the LD50 turned out to be 73.6 mg/kg. Also, the “Antisp. activity in transit test: ED50” value in data set [2] was “inactive”. Also, the “Antisp. activity in vitro on the ileum” value in data set [3] stood at 0.82.
On to `CCCN(CCC)C(=O)C(Cc1ccc(OCCCN2CCN(Cc3ccccc3)CC2)cc1)NC(=O)c1ccccc1` (racemic) [CR 619, O-[3-(N"-benzylpiperazine)-N'-propyl]-N-benzoyl-DL-tyrosil-di-n-propylamide], for which, in data set [1], the LD50 came out at 110 mg/kg. Moreover, the median effective dose (ED50) in data set [2] is 67.8 mg/kg.
For the compound `CCCN(CCC)C(=O)C(Cc1ccc(OCCN(C)C)cc1)NC(=O)c1ccc([N+](=O)[O-])cc1` (racemic) [CR 620, O-(2-dimethylamino-ethyl)-N-(p-nitro-benzoyl)DL-tyrosil-di-n-propylamide], the LD50 in data set [1] was determined as 117 mg/kg. The “Antisp. activity in transit test: ED50” value in data set [2] is “inactive”. Besides, the “Antisp. activity in vitro on the ileum” value in data set [3] turned out to be 0.36.
In the same order, the values of `CCCN(CCC)C(=O)C(Cc1ccc(OCCN(C(C)C)C(C)C)cc1)NC(=O)c1ccccc1` (racemic) [CR 624, O-(2-di-isopropylamino-ethyl)-N-benzoyl-DL-tyrosil-di-n-propylamide] are 24.4 mg/kg, “inactive” and 1.12.
With `CCCN(CCC)C(=O)C(Cc1ccc(OCCN2CCCC2)cc1)NC(=O)c1ccccc1` (racemic) [CR 625, O-(2-pyrrolidil-N'-ethyl)-N-benzoyl-DL-tyrosil-di-n-propylamide], the LD50 in data set [1] came out at 32.6 mg/kg. Also, the ED50 in data set [2] came to 21.1 mg/kg. The “Antisp. activity in vitro on the ileum” value in data set [3] worked out at 0.52.
On to `CCCN(CCC)C(=O)C(Cc1ccc(OCCN2CCCCC2)cc1)NC(=O)c1ccccc1` (racemic) [CR 630, O-(2-piperidil -N'-ethyl)-N-benzoyl-DL-tyrosil-di-n-propylamide], for which the LD50 in data set [1] was determined as 36.1 mg/kg. For the same compound, the ED50 in data set [2] was found to be 40.1 mg/kg.
With `CCCN(CCC)C(=O)C(Cc1ccc(OCCN(CC)CC)cc1)NC(=O)c1ccc(Br)cc1` (racemic) [CR 631, O-(2-diethylamino-ethyl)-N-(p-bromobenzoyl)-DL-tyrosil-din-propylamide], the LD50 in data set [1] was determined as 60.2 mg/kg. The ED50 in data set [2] turned out to be 40.4 mg/kg. In addition, the “Antisp. activity in vitro on the ileum” value in data set [3] amounted to 1.22.
The like results for `CCCN(CCC)C(=O)C(Cc1ccc(OCCN(CC)CC)cc1)NC(=O)c1ccc(C)c(C)c1` (racemic) [CR 632, O-(2-diethylamino-ethyl)-N-(3,4-di-methyl-benzoyl)-DL-tyrosil-di-n-propylamide] were, in that order, 38.1 mg/kg, 26 mg/kg and 0.40.
The like results for `CCCN(CCC)C(=O)C(Cc1ccc(OCCN(CC)CC)cc1)NC(=O)c1ccc(C(F)(F)F)cc1` (racemic) [CR 635, O-(2-diethylamino-ethyl)-N-[p-(trifluoro-methyl)-benzoyl]-DL-tyrosil-di-n-p ropylamide] were, in that order, 38.7 mg/kg, 25.6 mg/kg and 0.95.
In the same order, the values of `CCCN(CCC)C(=O)C(Cc1ccc(OCCN(CC)CC)cc1)NC(=O)c1ccc(OC)cc1` (racemic) [CR 644, O-(2-diethylamino-ethyl)-N-(p-metoxy-benzoyl)-DL-tyrosil-di-n-propylamide] are 56.4 mg/kg, 20.2 mg/kg and 0.45.
`CCCCNC(=O)C(Cc1ccc(OCCN2CCCC2)cc1)NC(=O)c1ccccc1` (racemic) [CR 648, O-(2-pyrrolidil-N'-ethyl)-N-benzoyl-DL-tyrosil-n-butylamide] returned an LD50 in data set [1] of 35.6 mg/kg. In addition, in data set [2], the ED50 is 10.7 mg/kg. Besides, in data set [3], the “Antisp. activity in vitro on the ileum” value was determined as 0.16.
On to `CCCN(CCC)C(=O)C(Cc1ccc(OC(C)C(C)CN(CC)CC)cc1)NC(=O)c1ccccc1` (racemic) [CR 700, O-(3-diethylamino-1,2-dimethyl-propyl)-N-benzoyl-DL-tyrosil-di-n-propylamide], for which the LD50 in data set [1] was determined as 19.3 mg/kg. Further, the ED50 in data set [2] is 20.4 mg/kg.
In the case of `CCCCNC(=O)C(Cc1ccc(OCCCN2CCN(C)CC2)cc1)NC(=O)c1ccccc1` (racemic) [CR 702, O-[3-(N"-methyl-piperazine)-N'-propyl]-N-benzoyl-DL-tyrosil-n-butylamide], the LD50 in data set [1] came out at 81.4 mg/kg. Also, the ED50 in data set [2] was 62.5 mg/kg. Besides, the “Antisp. activity in vitro on the ileum” value in data set [3] was 0.11.
In data set [1], `CCCCNC(=O)C(Cc1ccc(OCCCN2CCN(C)CC2)cc1)NC(=O)c1ccc(Cl)cc1` (racemic) [CR 705, O-[3-(N"-methyl-piperazine)-N'-propyl]-N-(p-chloro-benzoyl)-DL-tyrosil-n-butylamide] gave an LD50 of 80 mg/kg. The ED50 in data set [2] was 31 mg/kg. Also, in data set [3], the “Antisp. activity in vitro on the ileum” value is 1.57.
Consider `CCNC(=O)C(Cc1ccc(OCCN(C(C)C)C(C)C)cc1)NC(=O)c1ccccc1` (racemic) [CR 711, O-(2-diisopropylamino-ethyl)-N-benzoyl-DL-tyrosil-ethylamide], for which the median lethal dose (LD50) in data set [1] is 82 mg/kg. In addition, the “Antisp. activity in transit test: ED50” value in data set [2] was “inactive”. Also, in data set [3], the “Antisp. activity in vitro on the ileum” value is on record as 0.42.
In the same order, the values of `CCNC(=O)C(Cc1ccc(OCCCN2CCN(C)CC2)cc1)NC(=O)c1ccc(Cl)cc1` (racemic) [CR 714, O-[3-(N"-methyl-piperazine)-N'-propyl]-N-(p-chloro-benzoyl)-DL-tyrosil-ethylamide] are 111 mg/kg, “inactive” and 0.42.
Regarding `CCCN(CCC)C(=O)C(Cc1ccc(OCCN(C(C)C)C(C)C)cc1)NC(=O)c1ccc(Cl)cc1` (racemic) [CR 727, O-(2'-di-isopropylamino-ethyl)-N-(p-chloro-benzoyl)-DL-tyrosil-di-n-propylamide], in data set [1], the 50% lethal dose (LD50) worked out at 26.3 mg/kg. Moreover, the ED50 in data set [2] came to 24.9 mg/kg. Besides, the “Antisp. activity in vitro on the ileum” value in data set [3] was found to be 1.52.
The like results for `CCCCNC(=O)C(Cc1ccc(OCCN(CC)CC)cc1)NC(=O)c1ccc(Cl)cc1` (racemic) [CR 729, O-(2-diethylamino-ethyl)-N-(p-chloro-benzoyl)-DL-tyrosil-n-butylamide] were, in that order, 38.6 mg/kg, 23 mg/kg and 2.45.
`CCCN(CCC)C(=O)C(Cc1ccc(OCCCCN(CC)CC)cc1)NC(=O)c1ccccc1` (racemic) [CR 829, O-(4-diethylamino-butyl)-N-benzoyl-DL-tyrosil-di-n-propylamide] came in with an LD50 in data set [1] of 20.1 mg/kg. Moreover, in data set [2], the ED50 turned out to be 15.2 mg/kg.
